Data as given in PubChem BioAssay AID2060500 (Molecular Pharmacology Branch, DTP, NCI, 2025).

System: 596521-263-R-J1-PDC complex spheroids, viability % of control
Assay: Anticancer human tumor 596521-263-R-J1-PDC patient-derived soft tissue sarcoma cell line growth inhibition [GQUAD]
Details: for IC50: curve of first compound; for viability, T/C: stronger effect = lower value
Procedure, shortened: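 Tumor cells were grown as complex spheroids with HUVEC endothelial cells and mesenchymal stem cells as stroma. G-quadruplex stabilizers were combined with targeted agents over half-log dilutions from near the clinical Cmax, or from 10 microM.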

[1] = second compound 0.0316 µM, first compound 0.0316 µM
[2] = second compound 0.0316 µM, first compound 0.1 µM
[3] = second compound 0.0316 µM, first compound 0.316 µM
[4] = second compound 0.0316 µM, first compound 1 µM
[5] = second compound 0.0316 µM, first compound 3.16 µM
[6] = second compound 0.0316 µM, first compound 10 µM
[7] = second compound 0.1 µM, first compound 0.0316 µM
[8] = second compound 0.1 µM, first compound 0.1 µM
[9] = second compound 0.1 µM, first compound 0.316 µM
[10] = second compound 0.1 µM, first compound 1 µM
[11] = second compound 0.1 µM, first compound 3.16 µM
[12] = second compound 0.1 µM, first compound 10 µM
[13] = second compound 0.316 µM, first compound 0.0316 µM
[14] = second compound 0.316 µM, first compound 0.1 µM
[15] = second compound 0.316 µM, first compound 0.316 µM
[16] = second compound 0.316 µM, first compound 1 µM
[17] = second compound 0.316 µM, first compound 3.16 µM
[18] = second compound 0.316 µM, first compound 10 µM
[19] = second compound 1 µM, first compound 0.0316 µM
[20] = second compound 1 µM, first compound 0.1 µM
[21] = second compound 1 µM, first compound 0.316 µM
[22] = second compound 1 µM, first compound 1 µM
[23] = second compound 1 µM, first compound 3.16 µM
[24] = second compound 1 µM, first compound 10 µM
[25] = second compound 3.16 µM, first compound 0.0316 µM
[26] = second compound 3.16 µM, first compound 0.1 µM
[27] = second compound 3.16 µM, first compound 0.316 µM
[28] = second compound 3.16 µM, first compound 1 µM
[29] = second compound 3.16 µM, first compound 3.16 µM
[30] = second compound 3.16 µM, first compound 10 µM
[31] = second compound 10 µM, first compound 0.0316 µM
[32] = second compound 10 µM, first compound 0.1 µM
[33] = second compound 10 µM, first compound 0.316 µM
[34] = second compound 10 µM, first compound 1 µM
[35] = second compound 10 µM, first compound 3.16 µM
[36] = second compound 10 µM, first compound 10 µM
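Further: spheroids exposed to drugs for 7 days before viability reading.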
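Wherever viability, T/C is given: 100% = DMSO vehicle control viability.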

With `C=CCn1c(=O)c2cnc(Nc3ccc(N4CCN(C)CC4)cc3)nc2n1-c1cccc(C(C)(C)O)n1` + CN(C)c1ccc(Nc2c3ccc(NC(=O)CCN4CCCC4)cc3nc3cc(NC(=O)CCN4CCCC4)ccc23)cc1 the IC50 (second compound 0.0316 µM) was 0.644 µM, the IC50 (second compound 0.1 µM) was 0.544 µM and the IC50 (second compound 0.316 µM) was 0.484 µM. The IC50 (second compound 1 µM) was 0.76 µM, the IC50 (second compound 3.16 µM) was 0.757 µM and the IC50 (second compound 10 µM) was 0.308 µM. It also gave a viability, T/C [1] of 90.4%, a viability, T/C [2] of 81.2% and a viability, T/C [3] of 53.5%. For the same compound, the viability, T/C [4] was 44.9%, the viability, T/C [5] was 42% and the viability, T/C [6] was 27.7%. For the same compound, the viability, T/C [7] was 105%, the viability, T/C [8] was 82.5% and the viability, T/C [9] was 53.9%. For the same compound, the viability, T/C [10] was 44.1%, the viability, T/C [11] was 45.3% and the viability, T/C [12] was 32.9%. For the same compound, the viability, T/C [13] was 90.5%, the viability, T/C [14] was 90.4% and the viability, T/C [15] was 54.5%. The viability, T/C [16] was 47.3%, the viability, T/C [17] was 46.1% and the viability, T/C [18] was 32.1%. For the same compound, the viability, T/C [19] was 86.4%, the viability, T/C [20] was 79.6% and the viability, T/C [21] was 57.1%. It also gave a viability, T/C [22] of 47%, a viability, T/C [23] of 49.4% and a viability, T/C [24] of 34.7%. The viability, T/C [25] was 100%, the viability, T/C [26] was 84.8% and the viability, T/C [27] was 63.9%. It also gave a viability, T/C [28] of 44.4%, a viability, T/C [29] of 38.2% and a viability, T/C [30] of 31.2%. For the same compound, the viability, T/C [31] was 66.9%, the viability, T/C [32] was 54.9% and the viability, T/C [33] was 47.3%. It also gave a viability, T/C [34] of 44.7%, a viability, T/C [35] of 34.2% and a viability, T/C [36] of 20.7%.
Work on `CC(C)(O)C1CCC(Nc2ccc3ncc(-c4cccc(C(F)(F)F)c4)n3n2)CC1` (stereo unspecified) + CN(C)c1ccc(Nc2c3ccc(NC(=O)CCN4CCCC4)cc3nc3cc(NC(=O)CCN4CCCC4)ccc23)cc1 yielded an IC50 (second compound 0.0316 µM) of 1.42 µM, an IC50 (second compound 0.1 µM) of 1.37 µM and an IC50 (second compound 0.316 µM) of 1.56 µM. It also gave an IC50 (second compound 1 µM) of 1.72 µM, an IC50 (second compound 3.16 µM) of 1.52 µM and an IC50 (second compound 10 µM) of 0.915 µM. For the same compound, the viability, T/C [1] was 96.8%, the viability, T/C [2] was 97.3% and the viability, T/C [3] was 81.7%. For the same compound, the viability, T/C [4] was 65%, the viability, T/C [5] was 16.9% and the viability, T/C [6] was 19.1%. It also gave a viability, T/C [7] of 94.2%, a viability, T/C [8] of 84.5% and a viability, T/C [9] of 87%. For the same compound, the viability, T/C [10] was 61%, the viability, T/C [11] was 20.4% and the viability, T/C [12] was 21.6%. The viability, T/C [13] was 97%, the viability, T/C [14] was 113% and the viability, T/C [15] was 83.4%. For the same compound, the viability, T/C [16] was 70.5%, the viability, T/C [17] was 19.9% and the viability, T/C [18] was 20.2%. It also gave a viability, T/C [19] of 92.9%, a viability, T/C [20] of 95.9% and a viability, T/C [21] of 78.6%. The viability, T/C [22] was 75.5%, the viability, T/C [23] was 19.1% and the viability, T/C [24] was 24%. It also gave a viability, T/C [25] of 87.1%, a viability, T/C [26] of 97.3% and a viability, T/C [27] of 83.8%. The viability, T/C [28] was 66.4%, the viability, T/C [29] was 18.1% and the viability, T/C [30] was 24.2%. For the same compound, the viability, T/C [31] was 65.3%, the viability, T/C [32] was 61.7% and the viability, T/C [33] was 61.1%. The viability, T/C [34] was 49%, the viability, T/C [35] was 13.8% and the viability, T/C [36] was 13.1%.
Work on `COc1ncnc(C2CC2)c1-c1ncc2cnn(Cc3ccc(-c4nc(C(F)(F)F)cn4C(C)C)cc3)c2n1` + CN(C)c1ccc(Nc2c3ccc(NC(=O)CCN4CCCC4)cc3nc3cc(NC(=O)CCN4CCCC4)ccc23)cc1 yielded an IC50 (second compound 0.0316 µM) of over 10 µM, an IC50 (second compound 0.1 µM) of over 10 µM and an IC50 (second compound 0.316 µM) of over 10 µM. The IC50 (second compound 1 µM) was over 10 µM, the IC50 (second compound 3.16 µM) was over 10 µM and the IC50 (second compound 10 µM) was 3.76 µM. For the same compound, the viability, T/C [1] was 94.8%, the viability, T/C [2] was 100% and the viability, T/C [3] was 92.2%. For the same compound, the viability, T/C [4] was 104%, the viability, T/C [5] was 90.9% and the viability, T/C [6] was 97.2%. For the same compound, the viability, T/C [7] was 103%, the viability, T/C [8] was 94.7% and the viability, T/C [9] was 98.4%. It also gave a viability, T/C [10] of 89.8%, a viability, T/C [11] of 98.6% and a viability, T/C [12] of 93.5%. It also gave a viability, T/C [13] of 103%, a viability, T/C [14] of 99.2% and a viability, T/C [15] of 101%. For the same compound, the viability, T/C [16] was 106%, the viability, T/C [17] was 104% and the viability, T/C [18] was 105%. For the same compound, the viability, T/C [19] was 95.4%, the viability, T/C [20] was 92.5% and the viability, T/C [21] was 93.5%. It also gave a viability, T/C [22] of 81.1%, a viability, T/C [23] of 108% and a viability, T/C [24] of 88.3%. It also gave a viability, T/C [25] of 89.9%, a viability, T/C [26] of 106% and a viability, T/C [27] of 87.9%. The viability, T/C [28] was 108%, the viability, T/C [29] was 86.6% and the viability, T/C [30] was 72.6%. For the same compound, the viability, T/C [31] was 63%, the viability, T/C [32] was 57.7% and the viability, T/C [33] was 63.8%. The viability, T/C [34] was 57%, the viability, T/C [35] was 52% and the viability, T/C [36] was 38.4%.
